Experimental data from ChEMBL document CHEMBL6153139, “Discovery of Novel Isoxazole-Based Small-Molecule Toll-Like Receptor 8 Antagonists” (J Med Chem, 2025).
Activity calls are given as the source filed them. The calls are words filed in the database; no cut-off is given here.

Assays:
[1] = Cytotoxicity against HEK-Blue hTLR8 cells assessed as reduction in cell viability at 25 to 50 uM incubated for 24 hrs by MTT assay; assay type: toxicity, cell-based; settings: human, hek-blue htlr8, 24 h, dose 25-50 µM
[2] = system: T1, Toll-like receptor 8 (Homo sapiens), Q9NR97 [F495L]; assay: Antagonist activity at human TLR8 F495L mutant transfected in HEK293 cells assessed as inhibition of TL8-506 induced NFkappaB activation at 1 uM preincubated with compound for 1 hrs followed by TL8-506 addition and measured after 24 hrs by Quanti-blue reagent based SEAP reporter assay; assay type: cell-based; settings: filed as antagonist
T1 sequence (whole entry): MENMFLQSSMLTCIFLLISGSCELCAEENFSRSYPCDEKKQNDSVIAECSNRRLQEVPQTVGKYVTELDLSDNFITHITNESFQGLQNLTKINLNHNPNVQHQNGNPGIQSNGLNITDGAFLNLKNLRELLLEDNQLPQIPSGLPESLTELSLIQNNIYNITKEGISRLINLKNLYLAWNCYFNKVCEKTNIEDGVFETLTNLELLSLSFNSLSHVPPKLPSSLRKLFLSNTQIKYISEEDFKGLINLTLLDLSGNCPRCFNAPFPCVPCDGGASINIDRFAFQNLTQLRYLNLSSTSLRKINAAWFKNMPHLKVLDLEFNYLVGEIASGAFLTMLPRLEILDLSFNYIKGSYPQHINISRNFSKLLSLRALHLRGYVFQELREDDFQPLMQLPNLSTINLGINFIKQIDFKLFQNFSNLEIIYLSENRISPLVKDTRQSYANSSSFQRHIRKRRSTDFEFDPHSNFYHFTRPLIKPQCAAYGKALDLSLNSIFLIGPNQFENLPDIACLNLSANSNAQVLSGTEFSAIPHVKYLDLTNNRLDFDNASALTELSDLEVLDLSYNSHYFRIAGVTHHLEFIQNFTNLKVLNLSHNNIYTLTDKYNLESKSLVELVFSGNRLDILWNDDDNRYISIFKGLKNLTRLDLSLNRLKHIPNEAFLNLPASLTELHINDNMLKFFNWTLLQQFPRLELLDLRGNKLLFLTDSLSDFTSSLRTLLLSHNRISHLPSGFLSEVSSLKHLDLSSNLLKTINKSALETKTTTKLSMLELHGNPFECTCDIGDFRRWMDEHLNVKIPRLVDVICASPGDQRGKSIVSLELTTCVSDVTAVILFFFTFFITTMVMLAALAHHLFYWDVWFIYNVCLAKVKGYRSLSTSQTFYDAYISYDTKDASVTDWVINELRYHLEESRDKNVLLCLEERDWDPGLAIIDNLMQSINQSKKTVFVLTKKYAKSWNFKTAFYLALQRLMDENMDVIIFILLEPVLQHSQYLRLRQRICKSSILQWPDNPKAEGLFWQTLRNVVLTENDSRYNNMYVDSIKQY

[3] = system: T1, Toll-like receptor 8 (Homo sapiens), Q9NR97 [F495L]; assay: Antagonist activity at human TLR8 F495L mutant transfected in HEK293 cells assessed as inhibition of CL075 induced NFkappaB activation at 1 uM preincubated with compound for 1 hrs followed by CL075 addition and measured after 24 hrs by Quanti-blue reagent based SEAP reporter assay; assay type: cell-based; settings: filed as antagonist
THP-1 = assay: Cytotoxicity against human THP-1 cells assessed as reduction in cell viability upto 100 uM incubated for 24 hrs by MTT assay; assay type: toxicity, cell-based; settings: thp-1, 24 h
[4] = Cytotoxicity against human PBMC cells assessed as reduction in cell viability upto 100 uM incubated for 24 hrs by LDH release assay; assay type: toxicity, cell-based

| SMILES | Activity [1] | Activity [2] | Activity [3] | Activity (THP-1) | Activity [4] |
| --- | --- | --- | --- | --- | --- |
| Cc1noc(C)c1COc1ccc(C(=O)NCC(c2ccco2)N(C)C)cc1 (configuration not stated) | Non-toxic | – | – | – | – |
| COc1cc(C(=O)NCCN2CCCC2)ccc1OCc1c(C)noc1C | Non-toxic | – | – | – | – |
| N#Cc1ccc(N2C[C@H](N)C[C@H](C(F)(F)F)C2)c2cccnc12 | – | Active | Active | – | – |
| COc1cc(C(=O)NCC(c2ccc(C)cc2)N(C)C)ccc1OCc1c(C)noc1C (configuration not stated) | Non-toxic | – | – | Non-toxic | Non-toxic |
